The record followed here is patent publication US11879140B2, “P21 mRNA targeting DNAzymes” (1E Therapeutics Ltd., priority 2020, dated 2024).

[invdT] = inverted (3'-3') thymidine

The first series relates to healthy C57/B6 mice. Put plainly: In-vivo safety of DNAzyme in mice. To be noted: 2 week endpoint (FIGS. 13G-O). The procedure: 8 weeks old male and female C57/BL6 were treated intranasally with DNAzyme 1670 for 14 days. DNAzyme was administered in three concentrations: 40, 200 and 1000 μg. PBS treated mice served as control. Body weight, viability, clinical signs and behavior were monitored daily. On day 14, blood was collected using cardiac puncture and mice were sacrificed thereafter. Blood analyses were performed by AML (Central Lab Services). Hematology was performed using Advia-2120 (Siemens Healthineers). Biochemistry was performed using COBAS® 6000 (Roche Diagnostics).
Turning to “DNAzyme 1670 comprising a 3′Inverted dT: DNAzyme 1670 (SEQ ID NO: 54) with a 3′ inverted dT modification (DNA GGGAAAGGAGGCTAGCTACAACGAAAGGGGGAG; DNA, all phosphodiester, 3' [invdT], methylation of C not given here; further chemistry not fully specified)”, the “blood tests: complete blood count and biochemistry parameters” value is recorded as “safe profile”.

Staying with this series, now noted: 40, 200, 1000 micrograms intranasally daily for 2 weeks.
With “DNAzyme 1670 comprising a 3′Inverted dT: DNAzyme 1670 (SEQ ID NO: 54) with a 3′ inverted dT modification (DNA GGGAAAGGAGGCTAGCTACAACGAAAGGGGGAG; DNA, all phosphodiester, 3' [invdT], methylation of C not given here; further chemistry not fully specified)”, the “signs of pain or distress” value is “no obvious signs of pain or distress”.

The series is the same for the next values; noted with them: 40, 200, 1000 micrograms intranasally daily for 2 weeks (FIG. 13F).
Consider “DNAzyme 1670 comprising a 3′Inverted dT: DNAzyme 1670 (SEQ ID NO: 54) with a 3′ inverted dT modification (DNA GGGAAAGGAGGCTAGCTACAACGAAAGGGGGAG; DNA, all phosphodiester, 3' [invdT], methylation of C not given here; further chemistry not fully specified)”, for which the “body weight between groups” value is reported as “no significant differences”.

For another series, the system named is human p21 mRNA. Put plainly: In vitro cleavage assay of human p21 mRNA. The class given is biochemical. Conditions: in vitro cleavage of p21 mRNA (SEQ ID NO: 1); RNA substrate 500 nM, 37° C. 60 min, agarose gel. From the text: Total RNA was isolates from senescent IMR-90 cells using Nucleospin® RNA kit (Macherey-Nagel™). cDNA was synthesized with gene-specific reverse primers using M-MLV Reverse Transcriptase (Promega), according to the manufacturer's protocol. To generate template for in vitro transcription (IVT) reaction, the cDNA was PCR amplified using KAPA Taq EXtra HotStart® ReadyMix™ PCR Kit (R&D). PCR product was run on 1.5% agarose TAE gel, the correct band size was cut and DNA was cleaned using Wizard® SV Gel and PCR Clean-Up System kit (Promega). IVT was performed using HiScribe™ T7 High Yield RNA Synthesis Kit (NEB). Samples were then treated with DNase I (New England Biolabs) and incubated for 15 minutes at 37° C. IVT product was run on 1.5% agarose TBE gel, the correct band size was cut and RNA was cleaned using QIAquick® Gel Extraction Kit (Qiagen). See primer sequences in Table 1, below.
RNA substrate was diluted with Molecular Biology Grade Water (Biological Industries) and used in in vitro cleavage assay. A 20 μl reaction system comprising RNA substrate (final concentration 500 nM), 2 μl 10× reaction buffer (50 mM Tris-HCl pH 7.4, 100 mM NaCl, 10 mM MgCl2) and 1 μl DNAzyme (10 μM) (as depicted in Table 2, below) was mixed. Reactions were incubated at 37° C. for 60 min. 2×RNA L.D. (Thermo Fisher) was added to each sample. Samples were heated at 70° C. for 30 sec, centrifuged and loaded onto 1.5% agarose TBE gels. Quantification was performed using Image Lab software (Bio Rad).
On to “DNAzyme 1851: SEQ ID NO: 64: GTGCCACCAggctagctacaacgaATGGGACCC (DNA GTGCCACCAGGCTAGCTACAACGAATGGGACCC; DNA, backbone and methylation of C not given here)”, for which the Validated cleavage result is on record as “validated for mediating cleavage of p21 mRNA”. On the same count and under the same terms, the result for “DNAzyme 1455: SEQ ID NO: 45: AGGGGGGTAggctagctacaacgaCAAGAGCCA (DNA AGGGGGGTAGGCTAGCTACAACGACAAGAGCCA; DNA, backbone and methylation of C not given here)” reads “validated for mediating cleavage of p21 mRNA”; that for “DNAzyme 1967: SEQ ID NO: 70: TGGGGTGGAggctagctacaacgaGAGGAAGGT (DNA TGGGGTGGAGGCTAGCTACAACGAGAGGAAGGT; DNA, backbone and methylation of C not given here)”, “validated for mediating cleavage of p21 mRNA”.

“DNAzyme 1736: SEQ ID NO: 58: CCATTGAGtccgagccggacgaGGGGGTGGG (DNA CCATTGAGTCCGAGCCGGACGAGGGGGTGGG; DNA, backbone and methylation of C not given here)”: the Validated cleavage result is on record as “validated for mediating cleavage of p21 mRNA”. The same measure, in the same setting: to “DNAzyme 1854: SEQ ID NO: 65: CCTGTGCCAggctagctacaacgaCACATGGGA (DNA CCTGTGCCAGGCTAGCTACAACGACACATGGGA; DNA, backbone and methylation of C not given here)” belongs “validated for mediating cleavage of p21 mRNA”; to “DNAzyme 495: SEQ ID NO: 29: GAAGTTCCAggctagctacaacgaCGCTCACGG (DNA GAAGTTCCAGGCTAGCTACAACGACGCTCACGG; DNA, backbone and methylation of C not given here)”, “validated for mediating cleavage of p21 mRNA”. On the same count and under the same terms, the result for “DNAzyme 541: SEQ ID NO: 30: GCUCCCAGGggctagctacaacgaGAAGUCACC (DNA GCUCCCAGGGGCTAGCTACAACGAGAAGUCACC; DNA, backbone, methylation of C and T or U not given here)” reads “validated for mediating cleavage of p21 mRNA”; that for “DNAzyme 1719: SEQ ID NO: 57: GGGGTGGGAggctagctacaacgaAGGCACCTC (DNA GGGGTGGGAGGCTAGCTACAACGAAGGCACCTC; DNA, backbone and methylation of C not given here)”, “validated for mediating cleavage of p21 mRNA”. Same read-out and setting: the result for “DNAzyme 1504: SEQ ID NO: 47: GGGGTGGTtccgagccggacgaGCTCCAGGA (DNA GGGGTGGTTCCGAGCCGGACGAGCTCCAGGA; DNA, backbone and methylation of C not given here)” reads “validated for mediating cleavage of p21 mRNA”; that for “DNAzyme 974: SEQ ID NO: 35: GGGTATGTAggctagctacaacgaATGAGGAGG (GGGTATGTAGGCTAGCTACAACGAATGAGGAGG; DNA, backbone and methylation of C not given here)”, “validated for mediating cleavage of p21 mRNA”. For “DNAzyme 1252: SEQ ID NO: 42: GGGGGTGAAggctagctacaacgaTTCATAACC (DNA GGGGGTGAAGGCTAGCTACAACGATTCATAACC; DNA, backbone and methylation of C not given here)”, the Validated cleavage result was “validated for mediating cleavage of p21 mRNA”.

“DNAzyme 1641: SEQ ID NO: 53: AGAGGGGAAggctagctacaacgaTGCAGAGCC (DNA AGAGGGGAAGGCTAGCTACAACGATGCAGAGCC; DNA, backbone and methylation of C not given here)”: the Validated cleavage result was “validated for mediating cleavage of p21 mRNA”.

Consider “DNAzyme 1013: SEQ ID NO: 38: TAATTCTAAggctagctacaacgaGCCAGAGGC (DNA TAATTCTAAGGCTAGCTACAACGAGCCAGAGGC; DNA, backbone and methylation of C not given here)”, for which the Validated cleavage entry is listed as “validated for mediating cleavage of p21 mRNA”.

Consider “DNAzyme 846: SEQ ID NO: 33: GTGGGCGGAggctagctacaacgaTAGGGCTTC (DNA GTGGGCGGAGGCTAGCTACAACGATAGGGCTTC; DNA, backbone and methylation of C not given here)”, for which the Validated cleavage result was “validated for mediating cleavage of p21 mRNA”.

“DNAzyme 1786: SEQ ID NO: 60: GAGGTAGAAggctagctacaacgaTAGGGTGCC (DNA GAGGTAGAAGGCTAGCTACAACGATAGGGTGCC; DNA, backbone and methylation of C not given here)”: the Validated cleavage result is given as “validated for mediating cleavage of p21 mRNA”. In the case of “DNAzyme 1524: SEQ ID NO: 48: GAGGGGCCAggctagctacaacgaGAGGGCAGG (DNA GAGGGGCCAGGCTAGCTACAACGAGAGGGCAGG; DNA, backbone and methylation of C not given here)”, the Validated cleavage result is reported as “validated for mediating cleavage of p21 mRNA”. On the same count and under the same terms, the result for “DNAzyme 354: SEQ ID NO: 23: CGGTTCTGAggctagctacaacgaATGGCGCCT (DNA CGGTTCTGAGGCTAGCTACAACGAATGGCGCCT; DNA, backbone and methylation of C not given here)” reads “validated for mediating cleavage of p21 mRNA”.
